Measurements as given in the NIST ThermoML archive (doi:10.1016/j.jct.2018.07.015).

Test: mn = molality of the nth substance listed, in mol/kg
Details: 100 kPa, Liquid; for speed of sound: Frequency=3 MHz, Single path-length method; for mass density: Vibrating tube method

O [water] + OCC(O)CO
m2 = 0
Details | speed of sound [m/s]
298.15 K | 1495.8
308.15 K | 1519.1

OCC(O)CO [glycerol] + O
Details | mass density, 293.15 K [kg/m3] | mass density, 298.15 K [kg/m3] | mass density, 303.15 K [kg/m3] | mass density, 308.15 K [kg/m3] | speed of sound, 293.15 K [m/s] | speed of sound, 298.15 K [m/s] | speed of sound, 303.15 K [m/s] | speed of sound, 308.15 K [m/s]
m1 = 0.01 | 998.452 | 997.308 | 995.869 | 994.253 | 1483.2 | 1497 | 1509.3 | 1519.9
m1 = 0.03 | 998.865 | 997.707 | 996.304 | 994.684 | 1484 | 1497.8 | 1510 | 1520.6
m1 = 0.05 | 999.29 | 998.124 | 996.72 | 995.094 | 1484.8 | 1498.6 | 1510.7 | 1521.2
m1 = 0.07 | 999.691 | 998.513 | 997.109 | 995.469 | 1485.5 | 1499.3 | 1511.4 | 1521.8
